This passage reports inhibition results from PubChem BioAssay AID624434 (The Scripps Research Institute Molecular Screening Center, 2012).

Active and inactive are the calls of the source.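 How the source made its calls: active means inhibition of 30% or more at 50 µM; inactive means inhibition under 30% at 50 µM.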

As a reminder, the inhibition is the relative decrease from the control value, in per cent.

Chain of Serine/threonine-protein phosphatase 5 (Homo sapiens) (P53041 whole entry, looked up): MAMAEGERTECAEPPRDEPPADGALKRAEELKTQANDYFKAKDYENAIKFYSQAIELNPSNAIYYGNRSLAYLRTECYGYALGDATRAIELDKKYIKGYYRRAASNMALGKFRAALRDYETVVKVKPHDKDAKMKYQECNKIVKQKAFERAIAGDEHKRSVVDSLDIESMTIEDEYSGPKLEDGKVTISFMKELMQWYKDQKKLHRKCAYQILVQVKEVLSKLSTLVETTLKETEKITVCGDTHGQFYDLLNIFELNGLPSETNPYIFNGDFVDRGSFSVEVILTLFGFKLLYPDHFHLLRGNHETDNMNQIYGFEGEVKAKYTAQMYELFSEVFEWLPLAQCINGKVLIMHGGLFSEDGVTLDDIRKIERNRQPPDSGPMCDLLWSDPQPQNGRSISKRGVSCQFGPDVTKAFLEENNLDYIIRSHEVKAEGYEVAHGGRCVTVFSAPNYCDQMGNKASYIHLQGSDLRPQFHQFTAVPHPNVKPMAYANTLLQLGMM

The assay has as its target Serine/threonine-protein phosphatase 5 (Homo sapiens) (UniProt P53041). Description: single-dose PP5c inhibition check – biochemical, fluorescence, round 5, powder samples, confirmation (AID 624434). Particulars: purified PP5c, OMFP dephosphorylation, at 50 µM, stronger effect = higher value.
As for `O=C(O)c1n[nH]nc1-c1ccccc1O`, the inhibition is 81.9%.

With `O=C(O)c1n[nH]nc1-c1ccc(F)cc1`, the inhibition was 66.5%.

Regarding `O=C(O)c1n[nH]nc1-c1ccccn1`, the inhibition is 46.8%.

As for `O=Cc1n[nH]nc1-c1ccccc1`, the inhibition was 1.47% (inactive).

Turning to `N#Cc1n[nH]nc1-c1ccccc1`, the inhibition is 2.79% (inactive).

Turning to `O=C(O)c1n[nH]nc1Br`, the inhibition is 10.6% (inactive).

In the case of `O=C(O)c1n[nH]nc1-c1cccc(F)c1`, the inhibition is 70.5%.

As to `CN(C)C(=O)c1n[nH]nc1-c1ccccc1`, the inhibition was 0.413% (inactive).

In the case of `COc1cccc(-c2n[nH]nc2C(=O)O)c1`, the inhibition was 77.6%.

Take `COc1ccc(-c2n[nH]nc2C(=O)O)cc1`: the inhibition was 70%.

For `NC(=O)c1n[nH]nc1-c1ccccc1`, the inhibition was 5.21% (inactive).

On to `CC(C)Oc1ccccc1-c1n[nH]nc1C(=O)O`, for which the inhibition is 84.9%.

Regarding `O=C(O)c1n[nH]nc1C(=O)O`, the inhibition was 12.4% (inactive).

As to `O=C(O)c1n[nH]nc1-c1ccccc1-c1ccccc1`, the inhibition is 52.6%.

With `CC(C)c1ccccc1-c1n[nH]nc1C(=O)O`, the inhibition is 47.4%.

With `O=C(O)c1cnn(-c2ccccc2)n1`, the inhibition is 3.79% (inactive).

Regarding `CNC(=O)c1n[nH]nc1-c1ccccc1`, the inhibition is -1.73% (inactive).

As for `CCc1ccccc1-c1n[nH]nc1C(=O)O`, the inhibition is 62.5%.

With `c1ccc(-c2n[nH]nc2-c2nn[nH]n2)cc1`, the inhibition is 1.15% (inactive).

Regarding `CCOc1ccccc1-c1n[nH]nc1C(=O)O`, the inhibition was 85.6%.

In the case of `O=C(O)c1n[nH]nc1-c1ccccc1F`, the inhibition was 81.1%.

Regarding `COc1ccccc1-c1n[nH]nc1C(=O)O`, the inhibition was 83.4%.

As to `O=C(O)c1n[nH]nc1-c1cccnc1`, the inhibition is 4.32% (inactive).

Take `O=C(O)c1[nH]ccc1-c1ccccc1`: the inhibition was 13.8% (inactive).

Turning to `Cc1ccccc1-c1n[nH]nc1C(=O)O`, the inhibition was 69.3%.
